Test results taken from patent US20240116985A1, “STAPLED PEPTIDES AND METHODS THEREOF” (priority 2020, published 2024).
≈ marks a conversion by molar mass, not a printed value. Where two headings read alike, the source gives them in different places. Values belong to the compound of their own block, whether it stands above or below them.

Tests used:
[1] = Solubility in PBS; type: physicochemical
Description: After ultracentrifugation of the PBS solution, the supernatant was analyzed by HPLC and compared to an HPLC injection 50 μM peptide DMSO solution. Solubility was determined by: [(Area of PBS peak)/(Area of DMSO peak)]*50 uM.

[2] = molecular target: T1, full-length beta-Catenin (Uniprot ID P35222) (Homo sapiens, UniProt P35222); assay: Fluorescence polarization IC50 (beta-catenin / 5FAM-TCF4 10-53 competition); type: binding
T1 construct: 10 nM full-length beta-Catenin (Uniprot ID P35222)
T1 sequence (P35222 1-781): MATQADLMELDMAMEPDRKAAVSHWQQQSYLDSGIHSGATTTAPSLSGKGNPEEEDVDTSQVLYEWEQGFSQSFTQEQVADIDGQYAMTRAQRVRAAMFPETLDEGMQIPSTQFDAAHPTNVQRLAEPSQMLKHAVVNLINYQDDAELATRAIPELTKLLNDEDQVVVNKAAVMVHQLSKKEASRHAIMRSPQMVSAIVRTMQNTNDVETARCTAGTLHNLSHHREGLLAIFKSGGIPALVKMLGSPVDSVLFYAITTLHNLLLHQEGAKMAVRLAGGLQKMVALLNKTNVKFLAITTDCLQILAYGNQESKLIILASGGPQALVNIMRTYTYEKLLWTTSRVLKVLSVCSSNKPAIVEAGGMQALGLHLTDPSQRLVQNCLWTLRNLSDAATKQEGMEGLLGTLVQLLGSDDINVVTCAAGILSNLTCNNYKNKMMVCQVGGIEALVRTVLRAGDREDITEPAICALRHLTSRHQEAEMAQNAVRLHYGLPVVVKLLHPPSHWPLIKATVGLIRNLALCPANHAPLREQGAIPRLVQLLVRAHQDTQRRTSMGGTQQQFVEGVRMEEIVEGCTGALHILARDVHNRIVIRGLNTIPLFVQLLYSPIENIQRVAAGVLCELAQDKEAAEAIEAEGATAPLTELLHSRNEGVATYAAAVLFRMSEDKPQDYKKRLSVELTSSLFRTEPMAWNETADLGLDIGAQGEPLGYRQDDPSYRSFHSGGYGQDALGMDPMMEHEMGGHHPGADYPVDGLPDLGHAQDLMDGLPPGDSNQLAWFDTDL

[3] = CHI Log D procedure; type: physicochemical; details: for chromatographic logD: pH 7.4, CHI Log D
[4] = molecular target: T2, beta-catenin/TCF4 engagement (Homo sapiens, UniProt P35222); assay: Nano-BRET target engagement assay (B-cat-Halo & TCF4-Luc in HEK293 cells); type: cell-based; details: read-out: NanoBRET Abs IC50
T2 construct: expressed in transfected cells; host or cells: HEK293
T2 sequence (P35222 1-781): T1 sequence (P35222 1-781)

[5] = fluorescence polarization, beta-catenin, read-out: FP EC50

SMILES: CC(=O)N1CCC[C@]12CC=CCCCC1(CCCC=CCCCOC(=O)N3CC[C@@](C(=O)N[C@@H](Cc4ccccc4)C(=O)N[C@@H](Cc4csc5ccccc45)C(=O)N[C@@H](CCC(N)=O)C(N)=O)(C3)NC(=O)[C@H](CC(C)C)NC(=O)[C@H](Cc3ccccc3)NC(=O)[C@H](C)NC(=O)[C@H](C)NC(=O)[C@H]([C@@H](C)O)NC(=O)[C@H](CC(=O)O)NC1=O)NC(=O)[C@H](CC(C)(C)C)NC(=O)[C@H](CC(N)=O)NC2=O (single isomer, unassigned) [I-1284, Ac-PL3-Asn-Npg-B5-Asp-Thr-Ala-Ala-Phe-Leu-PyrS2-Phe-BztA-Gln-NH2]
Solubility [1]: 10 µM (≈ 19 µg/mL)

SMILES: CC(=O)N1CCC[C@]12CC=CCCCC1(CCCC=CCCCOC(=O)N3CC[C@@](C(=O)N[C@@H](Cc4ccccc4)C(=O)N[C@@H](Cc4csc5ccccc45)C(=O)N[C@@H](CCC(N)=O)C(N)=O)(C3)NC(=O)[C@H](CC(C)C)NC(=O)[C@H](Cc3ccccc3)NC(=O)[C@H](C)NC(=O)[C@H](C)NC(=O)[C@H]([C@@H](C)O)NC(=O)[C@H](CC(=O)O)NC1=O)NC(=O)[C@H](CC(C)(C)C)NC(=O)[C@H](CC(N)=O)NC2=O (single isomer, unassigned) [I-1285, Ac-PL3-Asn-Npg-B5-Asp-Thr-Ala-Ala-Phe-Leu-PyrS2-Phe-BztA-Gln-NH2]
Solubility [1]: 10 µM (≈ 19 µg/mL)

SMILES: CC(=O)N1CCC[C@]12CC=CCCCC1(CCCC=CCCCOC(=O)N3CC[C@@](C(=O)N[C@@H](Cc4ccccc4Cl)C(=O)N[C@@H](Cc4csc5ccccc45)C(=O)N[C@@H](C(N)=O)[C@H](C)O)(C3)NC(=O)[C@H](CO)NC(=O)[C@H](Cc3ccccc3)NC(=O)[C@H](C)NC(=O)[C@H](C)NC(=O)[C@H](CCC(=O)O)NC(=O)[C@H](CC(=O)O)NC1=O)NC(=O)[C@H](CC(C)(C)C)NC(=O)[C@H](CC(=O)O)NC2=O (stereo partly drawn) [I-1036, Ac-PL3-Asp-Npg-B5-Asp-Glu-Ala-Ala-Phe-Ser-PyrS2-2C1F-BztA-dThr-NH2]
IC50 ([2]; read-out: beta-Catenin FP IC50): 29 nM
chromatographic logD [3]: 2.46
IC50 [4]: 16600 nM

SMILES: CC(=O)N1CCC[C@]12CC=CCCCC1(CCCC=CCCCOC(=O)N3CC[C@@](C(=O)N[C@@H](Cc4ccccc4Cl)C(=O)N[C@@H](Cc4csc5ccccc45)C(=O)N[C@@H](C(N)=O)[C@H](C)O)(C3)NC(=O)[C@H]([C@@H](C)O)NC(=O)[C@H](Cc3ccccc3)NC(=O)[C@H](C)NC(=O)[C@H](C)NC(=O)[C@H](CCC(=O)O)NC(=O)[C@H](CC(=O)O)NC1=O)NC(=O)[C@H](CC(C)(C)C)NC(=O)[C@H](CC(=O)O)NC2=O (stereo partly drawn) [I-1037, Ac-PL3-Asp-Npg-B5-Asp-Glu-Ala-Ala-Phe-Thr-PyrS2-2C1F-BztA-dThr-NH2]
IC50 ([2]; read-out: beta-Catenin FP IC50): 30 nM
chromatographic logD [3]: 2.52
IC50 [4]: 4400 nM

SMILES: CC(=O)N1CCC[C@]12CC=CCCCC1(CCCC=CCCCOC(=O)N3CC[C@@](C(=O)N[C@@H](Cc4ccsc4)C(=O)N[C@@H](Cc4csc5ccccc45)C(=O)N[C@@H](CCC(N)=O)C(N)=O)(C3)NC(=O)[C@H](CC(N)=O)NC(=O)[C@H](Cc3ccccc3)NC(=O)[C@H](C)NC(=O)[C@H](C)NC(=O)[C@H](CN(CC(=O)O)CC(F)(F)F)NC(=O)[C@H](CC(=O)O)NC1=O)NC(=O)[C@H](CC(C)(C)C)NC(=O)C[C@H](CC(=O)O)NC2=O (stereo partly drawn) [I-1161, Ac-PL3-RbGlu-Npg-B5-Asp-TfeGA-Ala-Ala-Phe-Asn-PyrS2-3Thi-BztA-Gln-NH2]
IC50 ([2]; fluorescence polarization, read-out: beta-Catenin FP IC50): 24 nM
chromatographic logD [3]: 2.08
IC50 ([4]; absolute IC50): > 20000 nM

Continued by falling IC50 ([2]; read-out: beta-Catenin FP IC50), values first:

IC50 [2, 5]: 12 nM
IC50 ([2]; read-out: beta-Catenin FP IC50): 12 nM
CHI Log D ([3]; pH 7.4): 2.709
IC50 [4]: 10100 nM
SMILES: CC(=O)N1CCC[C@]12CC=CCCCC1(CCCC=CCCCCCC[C@@](C)(C(=O)N[C@@H](Cc3ccccc3Cl)C(=O)N[C@@H](Cc3csc4ccccc34)C(=O)N[C@@H](CCC(N)=O)C(N)=O)NC(=O)[C@H]([C@@H](C)O)NC(=O)[C@H](Cc3ccccc3)NC(=O)[C@H](C)NC(=O)[C@H](C)NC(=O)[C@H](CC(=O)O)NC(=O)[C@H](CC(=O)O)NC1=O)NC(=O)[C@H](CC(C)(C)C)NC(=O)[C@H](CC(=O)O)NC2=O (stereo partly drawn) [I-1086, Ac-PL3-Asp-Npg-B5-Asp-Asp-Ala-Ala-Phe-Thr-S8-2C1F-BztA-Gln-NH2]

IC50 ([2]; read-out: beta-Catenin FP IC50): 11 nM
chromatographic logD [3]: 2.04
IC50 ([4]; absolute IC50): 33300 nM
SMILES: CC(=O)N1CCC[C@]12CC=CCCCC1(CCCC=CCCCOC(=O)N3CC[C@@](C(=O)N[C@@H](Cc4ccccc4Cl)C(=O)N[C@@H](Cc4csc5ccccc45)C(=O)N[C@@H](CCC(N)=O)C(N)=O)(C3)NC(=O)[C@H](CC(N)=O)NC(=O)[C@H](Cc3ccccc3)NC(=O)[C@H](C)NC(=O)[C@H](CO)NC(=O)[C@H](CN(CC(=O)O)CC(F)(F)F)NC(=O)[C@H](CC(=O)O)NC1=O)NC(=O)[C@H](CC(C)(C)C)NC(=O)[C@H](CC(=O)O)NC2=O (stereo partly drawn) [I-1009, Ac-PL3-Asp-Npg-B5-Asp-TfeGA-Ser-Ala-Phe-Asn-PyrS2-2C1F-BztA-Gln-NH2]

IC50 [2, 5]: 393 nM
IC50 ([2]; read-out: beta-Catenin FP IC50): 11 nM
chromatographic logD [3]: 1.9
IC50 [4]: 4700 nM
SMILES: CC(=O)N1CCC[C@]12CC=CCCCC1(CCCC=CCCCOC(=O)N3CC[C@@](C(=O)N[C@@H](Cc4ccccc4Cl)C(=O)N[C@@H](Cc4csc5ccccc45)C(=O)N[C@@H](CCC(N)=O)C(N)=O)(C3)NC(=O)[C@H](CC(C)C)NC(=O)[C@H](Cc3ccccc3)NC(=O)[C@H](C)NC(=O)[C@H](C)NC(=O)[C@H](CC(=O)O)NC(=O)[C@H](CC(=O)O)NC1=O)NC(=O)[C@H](CC(C)(C)C)NC(=O)[C@H](CC(=O)O)NC2=O (stereo partly drawn) [I-1062, Ac-PL3-Asp-Npg-B5-Asp-Asp-Ala-Ala-Phe-Leu-PyrS2-2C1F-BztA-Gln-NH2]

IC50 ([2]; read-out: beta-Catenin FP IC50): 9 nM
chromatographic logD [3]: 1.94
IC50 [4]: 28800 nM
SMILES: C#CCOCCOCCOCCC(=O)NCCCC[C@H](NC(=O)[C@H](CCC(N)=O)NC(=O)[C@H](Cc1csc2ccccc12)NC(=O)[C@H](Cc1ccsc1)NC(=O)[C@]12CCN(C1)C(=O)OCCCC=CCCCC1(CCCC=CC[C@]3(CCCN3C(C)=O)C(=O)N[C@@H](CC(=O)O)C(=O)N[C@@H](CC(C)(C)C)C(=O)N1)C(=O)N[C@@H](CC(=O)O)C(=O)N[C@@H](CC(=O)O)C(=O)N[C@@H](C)C(=O)N[C@@H](C)C(=O)N[C@@H](Cc1ccccc1)C(=O)N[C@@H](CC(N)=O)C(=O)N2)C(N)=O (stereo partly drawn) [I-937, Ac-PL3-Asp-Npg-B5-Asp-Asp-Ala-Ala-Phe-Asn-PyrS2-3Thi-BztA-Gln-[PropynPEG3]Lys-NH2]

IC50 ([2]; read-out: beta-Catenin FP IC50): 8 nM
chromatographic logD [3]: 1.93
IC50 [4]: 33100 nM
SMILES: C#CCOCCC(=O)NCCCC[C@H](NC(=O)[C@H](CCC(N)=O)NC(=O)[C@H](Cc1csc2ccccc12)NC(=O)[C@H](Cc1ccsc1)NC(=O)[C@]12CCN(C1)C(=O)OCCCC=CCCCC1(CCCC=CC[C@]3(CCCN3C(C)=O)C(=O)N[C@@H](CC(=O)O)C(=O)N[C@@H](CC(C)(C)C)C(=O)N1)C(=O)N[C@@H](CC(=O)O)C(=O)N[C@@H](CC(=O)O)C(=O)N[C@@H](C)C(=O)N[C@@H](C)C(=O)N[C@@H](Cc1ccccc1)C(=O)N[C@@H](CC(N)=O)C(=O)N2)C(N)=O (stereo partly drawn) [I-935, Ac-PL3-Asp-Npg-B5-Asp-Asp-Ala-Ala-Phe-Asn-PyrS2-3Thi-BztA-Gln-[PropynPEG1]Lys-NH2]

IC50 ([2]; read-out: beta-Catenin FP IC50): 8 nM
chromatographic logD [3]: 2.36
IC50 ([4]; absolute IC50): 13300 nM
SMILES: CC[C@H](C)[C@@H]1NC(=O)[C@H](CN(CC(=O)O)CC(F)(F)F)NC(=O)[C@H](CC(=O)O)NC(=O)C2(CCCC=CCCCOC(=O)N3CC[C@@](C(=O)N[C@@H](Cc4ccccc4Cl)C(=O)N[C@@H](Cc4csc5ccccc45)C(=O)N[C@@H](CCC(N)=O)C(N)=O)(C3)NC(=O)[C@H](CC(N)=O)NC(=O)[C@H](Cc3ccccc3)NC(=O)[C@H](C)NC1=O)CCCC=CC[C@]1(CCCN1C(C)=O)C(=O)N[C@@H](CC(=O)O)C(=O)N[C@@H](CC(C)(C)C)C(=O)N2 (stereo partly drawn) [I-1010, Ac-PL3-Asp-Npg-B5-Asp-TfeGA-Ile-Ala-Phe-Asn-PyrS2-2C1F-BztA-Gln-NH2]

IC50 ([2]; read-out: beta-Catenin FP IC50): 7 nM
chromatographic logD [3]: 1.94
IC50 [4]: 22200 nM
SMILES: C#CCOCCOCCC(=O)NCCCC[C@H](NC(=O)[C@H](CCC(N)=O)NC(=O)[C@H](Cc1csc2ccccc12)NC(=O)[C@H](Cc1ccsc1)NC(=O)[C@]12CCN(C1)C(=O)OCCCC=CCCCC1(CCCC=CC[C@]3(CCCN3C(C)=O)C(=O)N[C@@H](CC(=O)O)C(=O)N[C@@H](CC(C)(C)C)C(=O)N1)C(=O)N[C@@H](CC(=O)O)C(=O)N[C@@H](CC(=O)O)C(=O)N[C@@H](C)C(=O)N[C@@H](C)C(=O)N[C@@H](Cc1ccccc1)C(=O)N[C@@H](CC(N)=O)C(=O)N2)C(N)=O (stereo partly drawn) [I-936, Ac-PL3-Asp-Npg-B5-Asp-Asp-Ala-Ala-Phe-Asn-PyrS2-3Thi-BztA-Gln-[PropynPEG2]Lys-NH2]
